Measured values published in patent publication US20180037568A1, “MODULATORS OF METHYL MODIFYING ENZYMES, COMPOSITIONS AND USES THEREOF” (Constellation Pharmaceuticals, Inc., priority 2015, published 2018).
Where two headings read alike, the source gives them in different places.

How the values were obtained:
[1] = system: H3K27me3 mark; experiment: H3K27me3 Alpha Hela Assay (AlphaLISA); format: cell-based; details: Hela cells, read-out: EZH2 Cell H3K27me3 Alpha HeLa (EC50 K27me3)
Description: EC50 Measurements for Inhibitors in HeLa Cell Assays
H3K27me3 Alpha Hela Assay (AlphaLISA). Ten different doses of each test compound (in a series of 3-fold dilutions) were plated in duplicate 384-well tissue culture treated plates (Catalog #781080; Greiner Bio One; Monroe, N.C.). Hela cells grown in culture were trypsinized and counted using a Countess® cell counter (Catalog # C10281; Life Technologies, Grand Island, N.Y.). Cell were diluted to 67,000 cells per mL in 10% DMEM (Catalog #10569-010 Life Technologies, Grand Island, N.Y.) and 15 μL (1,000 cells) were plated into each well using the Biotek MicroFlo™ Select Dispenser (BioTek Instruments, Inc. Vermont, USA),) of the 384-well plate. Plates were incubated at 37° C./5% CO2 for 72 hrs. One of the duplicate plates was processed for HeLa assay and the other for viability.
To the plate processed for AlphaLISA was added 5 μL per well Cell-Histone Lysis buffer (1×) (Catalog # AL009F1 Perkin Elmer; Waltham, Mass.) and the plate was incubated at RT for 30 minutes on a plate shaker with low speed (Model#4625-Q Thermo Scientific; Waltham, Mass.). Then, 10 μL per well Histone Extraction buffer (catalog # AL009F2; Perkin Elmer; Waltham, Mass.) was added and the plate further incubated at RT for 20 min on plate shaker with low speed. To each well was then added 10 μL per well of a 5× mix of anti-K27me3 acceptor beads plus Biotinylated anti-Histone H3 (C-ter) Antibody (diluted to 3 nM final) (Catalog #AL118 Perkin Elmer; Waltham, Mass.). Dilution of the acceptor beads and then anti-Histone H3 was with 1× Histone Detection buffer (Catalog # AL009F3 Perkin Elmer; Waltham, Mass.) which was produced diluted from the 10× stock provided. The plate was sealed with an aluminum plate sealer and incubated at 23° C. for 60 min. We then added 10 μL 5× solution of Streptavidin Donor beads (Catalog #6760002 Perkin Elmer; Waltham, Mass.) (20 μg/mL final in 1× Histone Detection Buffer), sealed the plate with Aluminum plate sealer and incubated at 23° C. for 30 min. The plates were then read using an EnVision-Alpha Reader (model #2104 Perkin Elmer; Waltham, Mass.).
Data from both assays was analyzed using Assay Assistant (Constellation Pharmaceuticals In-house product) and Activity Base (IDBS Ltd, Surrey, UK) template. Data files were imported to Assay Assistant and assay conditions were specified. A unique Analysis ID was created and the data files exported to Activity Base. An analysis template was created on Activity Base to measure dose-dependent inhibition of H3K27me3 mark and cell viability respectively. Readout of DMSO wells were used to normalize the data. Resulting curves were fitted using Activity base software Model 205 (IDBS Ltd, Surrey, UK). The data was checked for quality, validated and integrated in excel format using SARview (IDBS Ltd, Surrey, UK).

[2] = target: T1, PRC2 containing wt EZH2 (Homo sapiens, UniProt Q15910); experiment: EZH2 pep BSA Brij 4.0 LowE (IC50): 3H-SAM incorporation into biotinylated H3 peptide; format: biochemical
T1 construct: made in house
T1 sequence (Q15910 whole entry): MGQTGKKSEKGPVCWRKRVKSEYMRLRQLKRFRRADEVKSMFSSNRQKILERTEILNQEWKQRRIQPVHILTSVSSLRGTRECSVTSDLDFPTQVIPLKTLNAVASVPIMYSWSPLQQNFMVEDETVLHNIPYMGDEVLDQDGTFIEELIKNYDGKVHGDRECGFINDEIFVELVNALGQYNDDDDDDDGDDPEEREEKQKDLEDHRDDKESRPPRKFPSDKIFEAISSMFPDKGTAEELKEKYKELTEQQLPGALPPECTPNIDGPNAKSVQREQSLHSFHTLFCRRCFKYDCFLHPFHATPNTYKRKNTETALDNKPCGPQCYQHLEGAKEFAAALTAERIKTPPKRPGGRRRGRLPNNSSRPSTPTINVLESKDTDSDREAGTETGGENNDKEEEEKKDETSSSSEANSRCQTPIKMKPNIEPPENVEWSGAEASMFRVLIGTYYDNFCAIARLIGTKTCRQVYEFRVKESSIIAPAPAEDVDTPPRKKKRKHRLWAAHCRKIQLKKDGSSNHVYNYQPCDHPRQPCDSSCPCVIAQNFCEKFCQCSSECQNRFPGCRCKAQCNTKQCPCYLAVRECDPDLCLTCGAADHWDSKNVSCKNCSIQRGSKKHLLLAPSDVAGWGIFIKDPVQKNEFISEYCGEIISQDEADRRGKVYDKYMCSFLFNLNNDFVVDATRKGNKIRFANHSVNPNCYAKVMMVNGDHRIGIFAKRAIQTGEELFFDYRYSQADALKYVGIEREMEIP
T1 sequence (O75530 whole entry partner): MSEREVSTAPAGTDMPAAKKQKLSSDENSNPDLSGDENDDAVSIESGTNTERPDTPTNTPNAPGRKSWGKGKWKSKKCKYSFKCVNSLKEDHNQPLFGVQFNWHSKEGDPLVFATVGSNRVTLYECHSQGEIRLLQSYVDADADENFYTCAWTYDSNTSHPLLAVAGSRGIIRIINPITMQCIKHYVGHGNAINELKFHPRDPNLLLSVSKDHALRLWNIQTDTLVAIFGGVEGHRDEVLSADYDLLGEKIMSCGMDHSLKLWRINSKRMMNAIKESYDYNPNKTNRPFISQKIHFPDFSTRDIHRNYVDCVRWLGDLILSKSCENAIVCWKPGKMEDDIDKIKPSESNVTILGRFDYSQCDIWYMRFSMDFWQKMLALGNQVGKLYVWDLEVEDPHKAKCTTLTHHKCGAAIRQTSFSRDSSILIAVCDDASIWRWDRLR
T1 sequence (Q15022 whole entry partner): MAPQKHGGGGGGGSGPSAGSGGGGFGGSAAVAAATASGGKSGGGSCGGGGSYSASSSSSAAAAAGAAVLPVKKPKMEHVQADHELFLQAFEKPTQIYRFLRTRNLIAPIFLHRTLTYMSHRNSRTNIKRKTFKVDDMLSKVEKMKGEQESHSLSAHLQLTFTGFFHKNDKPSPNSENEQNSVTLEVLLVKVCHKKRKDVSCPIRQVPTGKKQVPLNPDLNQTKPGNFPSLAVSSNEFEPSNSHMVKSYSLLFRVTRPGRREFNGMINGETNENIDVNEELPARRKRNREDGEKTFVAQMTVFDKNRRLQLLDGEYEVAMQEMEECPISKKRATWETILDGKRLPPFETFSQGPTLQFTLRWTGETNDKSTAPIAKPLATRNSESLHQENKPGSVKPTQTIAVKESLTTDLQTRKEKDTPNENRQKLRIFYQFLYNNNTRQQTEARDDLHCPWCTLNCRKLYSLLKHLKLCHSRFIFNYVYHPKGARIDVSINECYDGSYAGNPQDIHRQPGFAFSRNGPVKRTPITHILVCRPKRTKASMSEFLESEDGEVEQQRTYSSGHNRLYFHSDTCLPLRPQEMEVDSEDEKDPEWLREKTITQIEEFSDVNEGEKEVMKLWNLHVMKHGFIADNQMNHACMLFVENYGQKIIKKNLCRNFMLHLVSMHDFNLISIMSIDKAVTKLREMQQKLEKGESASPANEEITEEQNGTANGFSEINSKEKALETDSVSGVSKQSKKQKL
T1 sequence (Q09028 whole entry partner): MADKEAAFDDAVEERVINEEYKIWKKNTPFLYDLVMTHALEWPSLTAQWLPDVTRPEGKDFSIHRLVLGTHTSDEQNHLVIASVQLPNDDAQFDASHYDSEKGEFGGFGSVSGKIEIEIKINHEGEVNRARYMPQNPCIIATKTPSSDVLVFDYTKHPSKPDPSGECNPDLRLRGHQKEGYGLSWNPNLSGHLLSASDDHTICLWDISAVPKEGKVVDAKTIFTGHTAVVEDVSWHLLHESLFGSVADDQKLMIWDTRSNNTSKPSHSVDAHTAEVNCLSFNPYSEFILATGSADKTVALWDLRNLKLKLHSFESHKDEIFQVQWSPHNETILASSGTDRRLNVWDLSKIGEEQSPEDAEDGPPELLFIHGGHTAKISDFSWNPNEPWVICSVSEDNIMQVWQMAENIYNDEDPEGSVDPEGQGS
T1 sequence (Q6ZN18 whole entry partner): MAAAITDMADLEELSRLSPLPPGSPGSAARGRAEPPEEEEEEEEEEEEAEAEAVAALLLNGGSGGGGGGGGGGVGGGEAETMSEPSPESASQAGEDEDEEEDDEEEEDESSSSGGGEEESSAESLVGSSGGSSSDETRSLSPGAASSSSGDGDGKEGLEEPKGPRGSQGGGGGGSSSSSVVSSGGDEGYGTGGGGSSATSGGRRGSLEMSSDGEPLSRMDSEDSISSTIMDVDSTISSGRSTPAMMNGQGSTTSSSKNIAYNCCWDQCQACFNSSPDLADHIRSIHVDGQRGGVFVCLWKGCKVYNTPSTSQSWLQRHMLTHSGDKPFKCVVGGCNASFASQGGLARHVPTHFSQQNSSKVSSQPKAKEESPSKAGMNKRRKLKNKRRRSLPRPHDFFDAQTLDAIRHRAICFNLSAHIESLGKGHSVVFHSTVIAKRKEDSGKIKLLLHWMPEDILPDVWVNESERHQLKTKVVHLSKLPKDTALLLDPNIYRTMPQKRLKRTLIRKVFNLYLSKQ
Description: EZH2 Pep BSA Brij 4.0 LowE (IC50):
Compound potencies were assessed through incorporation of ^3H-SAM into a biotinylated H3 peptide. Specifically, PRC2 containing wt EZH2 (20 pM), (pentameric complexes prepared in-house) was pre-incubated with ^3H-SAM (0.9 μM), 2 μM H3K27me3 activating peptide (H2N-RKQLATKAAR(Kme3)SAPATGGVKKP-amide) and compounds (as 10 point duplicate dose response titrations in DMSO, final assay 0.8% DMSO (v/v)) for 120 min in 50 mM Tris (pH 8.5), 1 mM DTT, 0.07 mM Brij-35, 0.1% BSA, and 0.8% DMSO in a total volume of 12.5 μl. Reaction was initiated with biotinylated H3 substrate peptide (H2N-RKQLATKAAR(Kme1)SAPATGGVKKP-NTPEGBiot) as a 2 μM stock in 12.5 μl of buffer and allowed to react at room temperature for 5 h. Quenching was accomplished by addition of 20 μl of STOP solution (50 mM Tris (pH 8.5), 200 mM EDTA, 2 mM SAH). 35 μl of the quenched solution was transferred to Streptavidin Flashplates, incubated overnight, washed, and read in a TopCount Reader (Perkin Elmer). IC50s were calculated relative to fully active and no enzyme control wells using non-linear least square four parameter fits.

[3] = EZH2 pep BSA Brij 4.0 LowE (IC50), 20 pM PRC2 wt EZH2, 0.9 μM 3H-SAM, biotinylated H3 peptide substrate, 2 μM H3K27me3 activating peptide
[4] = read-out: EZH2 pep BSA Brij 4.0 LowE (IC50); 20 pM PRC2 wt EZH2, 0.9 μM 3H-SAM, biotinylated H3 peptide substrate, 2 μM H3K27me3 activating peptide
[5] = 20 pM PRC2 wt EZH2, 0.9 μM 3H-SAM, biotinylated H3 peptide substrate, 2 μM H3K27me3 activating peptide; read-out: EZH2 pep BSA Brij 4.0 LowE (IC50)

COc1cc(C)[nH]c(=O)c1CNC(=O)c1c(C)n(C(C)C2CCN(CC(F)(F)F)C(C)C2)c2ccccc12 (stereo not shown) [Compound 45]
EC50 ([1]; 72 hrs): < 400 nM
IC50 [2, 3]: < 100 nM

COc1cc(C)[nH]c(=O)c1CNC(=O)c1c(C)n(C(C)C2CCN(C)C(c3cccc(C(=O)O)c3)C2)c2ccccc12 (stereo not shown) [Compound 97]
EC50 ([1]; 72 hrs): > 2000 nM
IC50 [2, 3]: < 100 nM

COc1cc(C)[nH]c(=O)c1CNC(=O)c1c(C)n(C(C)C2CCNC(CC(F)(F)F)C2)c2ccccc12 (stereo not shown) [Compound 89]
EC50 ([1]; 72 hrs): 400 to 2000 nM
IC50 [2, 3]: < 100 nM

COc1cc(C)[nH]c(=O)c1CNC(=O)c1c(C)n(C(C)C2CCN(C)C(CO)C2)c2ccccc12 (stereo not shown) [Compound 30, 1-(1-(2-(hydroxymethyl)-1-methylpiperidin-4-yl)ethyl)-N-((4-methoxy-6-methyl-2-oxo-1,2-dihydropyridin-3-yl)methyl)-2-methyl-1H-indole-3-carboxamide]
EC50 ([1]; Homo sapiens, HeLa, 72 h): > 2000 nM
IC50 [2, 3]: < 100 nM

COc1cc(C)[nH]c(=O)c1CNC(=O)c1c(C)n(C(C)C2CCN(C)C(c3cccc(C#N)c3)C2)c2ccccc12 (stereo not shown) [Compound 95]
EC50 ([1]; Homo sapiens, HeLa, 72 h): 400 to 2000 nM
IC50 [2, 3]: < 100 nM

COc1cc(C)[nH]c(=O)c1CNC(=O)c1c(C)n(C(C)C2CCN(C)C(c3cccc(C(=O)O)c3)C2)c2ccccc12 (stereo not shown) [Compound 92]
EC50 ([1]; 72 hrs): 400 to 2000 nM
IC50 [2, 4]: < 100 nM

Cc1cc(C)c(CNC(=O)c2c(C)n(C(C)C3CCNC(C(F)(F)F)C3)c3ccccc23)c(=O)[nH]1 (single isomer, unassigned) [Compound 17, N-((4,6-dimethyl-2-oxo-1,2-dihydropyridin-3-yl)methyl)-2-methyl-1-(1-(2-(trifluoromethyl)piperidin-4-yl)ethyl)-1H-indole-3-carboxamide]
EC50 ([1]; Homo sapiens, HeLa, 72 h): < 400 nM
IC50 [2, 3]: < 100 nM

CCC1CC(C(C)n2c(C)c(C(=O)NCc3c(C)cc(C)[nH]c3=O)c3ccccc32)CCN1CC(F)F (stereo not shown) [Compound 69]
EC50 ([1]; 72 hrs): > 2000 nM
IC50 [2, 4]: < 100 nM

COc1cc(C)[nH]c(=O)c1CNC(=O)c1c(C)n(C(C)C2CCN(C)C(c3ccc(F)cc3)C2)c2ccccc12 (single isomer, unassigned) [Compound 35, 1-(1-(2-(4-fluorophenyl)-1-methylpiperidin-4-yl)ethyl)-N-((4-methoxy-6-methyl-2-oxo-1,2-dihydropyridin-3-yl)methyl)-2-methyl-1H-indole-3-carboxamide]
EC50 ([1]; 72 hrs): < 400 nM
IC50 [2, 5]: < 100 nM

Cc1cc(C)c(CNC(=O)c2c(C)n(C(C)C3CCNC(CC(F)(F)F)C3)c3ccccc23)c(=O)[nH]1 (stereo not shown) [Compound 84]
EC50 ([1]; Homo sapiens, HeLa, 72 h): 400 to 2000 nM
IC50 [2, 4]: < 100 nM

CCC1CC(C(C)n2c(C)c(C(=O)NCc3c(C)cc(C)[nH]c3=O)c3ccccc32)CCN1CC(F)F (stereo not shown) [Compound 68]
EC50 ([1]; 72 hrs): > 2000 nM
IC50 [2, 4]: < 100 nM

CCCc1cc(C)[nH]c(=O)c1CNC(=O)c1c(C)n(C(C)C2CCNC(C(F)(F)F)C2)c2ccccc12 (stereo not shown) [Compound 6, 2-methyl-N-((6-methyl-2-oxo-4-propyl-1,2-dihydropyridin-3-yl)methyl)-1-(1-(2-(trifluoromethyl)piperidin-4-yl)ethyl)-1H-indole-3-carboxamide]
EC50 ([1]; Homo sapiens, HeLa, 72 h): < 400 nM
IC50 [2, 3]: < 100 nM

COc1cc(C)[nH]c(=O)c1CNC(=O)c1c(C)n(C(C)C2CCN(C)CC2C(F)(F)F)c2ccccc12 (single isomer, unassigned) [Compound 27, N-((4-methoxy-6-methyl-2-oxo-1,2-dihydropyridin-3-yl)methyl)-2-methyl-1-(1-(1-methyl-3-(trifluoromethyl)piperidin-4-yl)ethyl)-1H-indole-3-carboxamide]
EC50 ([1]; Homo sapiens, HeLa, 72 h): > 2000 nM
IC50 [2, 3]: 100 to 1000 nM

COc1cc(C)[nH]c(=O)c1CNC(=O)c1c(C)n(C(C)C2CCNC(CC(F)(F)F)C2)c2ccccc12 (stereo not shown) [Compound 88]
EC50 ([1]; 72 hrs): > 2000 nM
IC50 [2, 3]: < 100 nM

COc1cc(C)[nH]c(=O)c1CNC(=O)c1c(C)n(C(C)C2CCN(CC(F)F)C(C)C2)c2ccccc12 (stereo not shown) [Compound 46]
EC50 ([1]; 72 hrs): < 400 nM
IC50 [2, 4]: < 100 nM

COc1cc(C)[nH]c(=O)c1CNC(=O)c1c(C)n(C(C)C2CCN(CC(F)F)C(C)C2)c2ccccc12 (stereo not shown) [Compound 44]
EC50 ([1]; 72 hrs): > 2000 nM
IC50 [2, 3]: < 100 nM

Cc1cc(OC(F)F)c(CNC(=O)c2c(C)n(C(C)C3CCNC(C(F)(F)F)C3)c3ccccc23)c(=O)[nH]1 (stereo not shown) [Compound 7, N-((4-(difluoromethoxy)-6-methyl-2-oxo-1,2-dihydropyridin-3-yl)methyl)-2-methyl-1-(1-(2-(trifluoromethyl)piperidin-4-yl)ethyl)-1H-indole-3-carboxamide]
EC50 ([1]; Homo sapiens, HeLa, 72 h): < 400 nM
IC50 [2, 3]: < 100 nM

CCC1CC(C(C)n2c(C)c(C(=O)NCc3c(C)cc(C)[nH]c3=O)c3ccccc32)CCN1CC(F)F (stereo not shown) [Compound 71]
EC50 ([1]; 72 hrs): < 400 nM
IC50 [2, 4]: < 100 nM

Cc1cc(C)c(CNC(=O)c2c(C)n(C(C)C3CCN(CC(C)(F)F)C(C)C3)c3ccccc23)c(=O)[nH]1 (stereo not shown) [Compound 48]
IC50 [2, 3]: 100 to 1000 nM

COc1cc(C)[nH]c(=O)c1CNC(=O)c1c(C)n(C(C)C2CCN(C(C)=O)C(CC(F)(F)F)C2)c2ccccc12 (stereo not shown) [Compound 75]
IC50 [2, 5]: < 100 nM

COc1cc(C)[nH]c(=O)c1CNC(=O)c1c(C)n(C(C)C2CCN(C)C(c3cccc(F)c3)C2)c2ccccc12 (stereo not shown) [Compound 55]
IC50 [2, 5]: < 100 nM

Cc1cc(C)c(CNC(=O)c2c(C)n(C(C)C3CCNC(CC(F)(F)F)C3)c3ccccc23)c(=O)[nH]1 (stereo not shown) [Compound 85]
IC50 [2, 4]: < 100 nM

COc1cc(C)[nH]c(=O)c1CNC(=O)c1c(C)n(C(C)C2CCN(C(C)=O)C(C)C2)c2ccccc12 (stereo not shown) [Compound 78]
IC50 [2, 5]: < 100 nM

Cc1cc(C)c(CNC(=O)c2c(C)n(C(C)C3CCNC(CC(F)(F)F)C3)c3ccccc23)c(=O)[nH]1 (stereo not shown) [Compound 86]
IC50 [2, 4]: < 100 nM

CCC1CC(C(C)n2c(C)c(C(=O)NCc3c(OC)cc(C)[nH]c3=O)c3ccccc32)CCN1CC(F)F (stereo not shown) [Compound 59]
IC50 [2, 4]: < 100 nM

COC(=O)N1CCC(C(C)n2c(C)c(C(=O)NCc3c(OC)cc(C)[nH]c3=O)c3ccccc32)CC1C (stereo not shown) [Compound 79]
IC50 [2, 5]: < 100 nM

Cc1cc(C)c(CNC(=O)c2c(C)n(C(C)C3CCN(CC(C)(F)F)C(C)C3)c3ccccc23)c(=O)[nH]1 (stereo not shown) [Compound 49]
IC50 [2, 3]: 100 to 1000 nM

COC(=O)N1CCC(C(C)n2c(C)c(C(=O)NCc3c(OC)cc(C)[nH]c3=O)c3ccccc32)CC1C (stereo not shown) [Compound 82]
IC50 [2, 5]: 100 to 1000 nM
